Reference: PMC5504036, “A tricyclic antidepressant, amoxapine, reduces amyloid-β generation through multiple serotonin receptor 6-mediated targets” (Scientific Reports, 2017)

Biological target: T1, serotonin receptor 6 (HTR6) (Homo sapiens, UniProt P50406)
T1 construct: human HTR6 expressed by lentivirus in SK-N-SH cells
Test: GloSensor cAMP assay (agonist) in SK-N-SH cells infected with HTR6 lentivirus
Assay type: cell-based

T1 sequence (P50406 whole entry): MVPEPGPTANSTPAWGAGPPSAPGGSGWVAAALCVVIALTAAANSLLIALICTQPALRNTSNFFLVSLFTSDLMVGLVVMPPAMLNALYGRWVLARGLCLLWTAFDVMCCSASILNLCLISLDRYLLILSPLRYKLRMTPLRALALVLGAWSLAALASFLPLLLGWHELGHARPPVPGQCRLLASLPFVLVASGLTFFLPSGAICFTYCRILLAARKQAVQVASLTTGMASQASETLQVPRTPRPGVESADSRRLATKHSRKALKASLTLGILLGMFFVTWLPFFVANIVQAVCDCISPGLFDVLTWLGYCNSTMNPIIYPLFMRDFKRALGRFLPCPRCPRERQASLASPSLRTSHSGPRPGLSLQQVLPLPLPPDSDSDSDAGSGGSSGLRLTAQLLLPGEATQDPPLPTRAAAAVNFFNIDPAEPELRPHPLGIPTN

Cc1[nH]c2ccc(Cl)cc2c1CCN(C)C [ST1936]
EC50: 1.7 nM
